Measured values published in patent US6852713B2, “Lactam derivatives and methods of their use” (Adolor Corporation, priority 2003, dated 2005).

What was measured:
[1] = biological target: T1, cloned human κ opioid receptor (Homo sapiens, UniProt P41145); experiment: In vitro binding assay, inhibition of [3H]diprenorphine binding, kappa; conditions: read-out: Ki against the human kappa receptor
T1 construct: expressed in transfected cells
Description: (§1) The potencies of the compounds of the invention were determined by testing the ability of a range of concentrations of each compound to inhibit the binding of the non-selective opioid antagonist, [^3H]diprenorphine, to the cloned human μ, κ, and δ opioid receptors, expressed in separate cell lines. IC50 values were obtained by nonlinear analysis of the data using GraphPad Prism version 3.00 for Windows (GraphPad Software, San Diego). Ki values were obtained by Cheng-Prusoff corrections of IC50 values.
(§2) The receptor binding method was a modification of the method of K. Raynor et al. (Mol. Pharmnacol. 1994, 45, 330-334). […] The filters were rinsed 4 times with 1 mL of cold 50 mM Tris HCl, pH 7.8 and radioactivity remaining on the filters determined by scintillation spectroscopy. Nonspecific binding was determined by the minimum values of the titration curves and was confirmed by separate assay wells containing 10 μM naloxone. Ki values were determined by Cheng-Prusoff corrections of IC50 values derived from nonlinear regression fits of 12 point titration curves using GraphPad Prism® version 3.00 for Windows (GraphPad Software, San Diego, Calif.).
(§3) To determine the equilibrium dissociation constant for the inhibitors (Ki), radioligand bound (cpm) in the presence of various concentrations of test compounds was measured. […]

[2] = biological target: T2, cloned human δ opioid receptor (Homo sapiens, UniProt P41143); experiment: In vitro binding assay, inhibition of [3H]diprenorphine binding, delta; conditions: kappa versus δ
T2 construct: expressed in transfected cells
T2 sequence (P41143 whole entry): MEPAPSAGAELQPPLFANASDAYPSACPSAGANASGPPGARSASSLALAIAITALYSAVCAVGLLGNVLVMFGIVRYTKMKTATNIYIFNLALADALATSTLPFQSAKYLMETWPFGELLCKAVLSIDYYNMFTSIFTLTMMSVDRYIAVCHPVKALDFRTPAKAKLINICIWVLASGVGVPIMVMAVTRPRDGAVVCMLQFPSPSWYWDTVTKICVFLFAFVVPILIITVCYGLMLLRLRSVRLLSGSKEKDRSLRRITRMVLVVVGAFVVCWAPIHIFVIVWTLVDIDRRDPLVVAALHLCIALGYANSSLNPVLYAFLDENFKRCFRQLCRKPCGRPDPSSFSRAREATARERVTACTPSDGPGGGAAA
Description: as §1, §2, §3

[3] = test system: acetic acid-induced writhing; experiment: Acetic acid-induced writhing; format: in vivo, male CF-1 mice; conditions: Mus musculus, po; administered orally; read-out: ED50, block of acetic acid-induced writhing
Description: Injection of acetic acid into the peritoneal cavity is used as the noxious stimulus, and the number of writhing responses that occur in response to acetic acid are counted in order to quantif the response to pain.
The writhing assay is adapted from the procedure originally described by Taber et al. (J. Pharmacol. Exp. Ther. 169: 29-38,1986), using male CF-1 mice weighing 20-25 g. Animals are treated with various doses of drugs prior to the administration of an i.p. injection of 0.6% acetic acid solution. Mice are then placed into observation chambers and the number of writhing responses, as defined by a full hind limb extension and retraction, are recorded.
The mean number of writhing responses is calculated for vehicle-treated control mice, and the percent inhibition (% I) of writhing is calculated for each mouse that is treated with drug using the following formula: % I=100×(mean control writhing responses−individual test responses)(mean control writhing responses) (f) Hyperalgesia Induced by Tape Stripping

[4] = biological target: T3, cloned human μ opioid receptor (Homo sapiens, UniProt P35372); experiment: In vitro binding assay, inhibition of [3H]diprenorphine binding, mu; conditions: kappa versus μ
T3 construct: expressed in transfected cells
T3 sequence (P35372 whole entry): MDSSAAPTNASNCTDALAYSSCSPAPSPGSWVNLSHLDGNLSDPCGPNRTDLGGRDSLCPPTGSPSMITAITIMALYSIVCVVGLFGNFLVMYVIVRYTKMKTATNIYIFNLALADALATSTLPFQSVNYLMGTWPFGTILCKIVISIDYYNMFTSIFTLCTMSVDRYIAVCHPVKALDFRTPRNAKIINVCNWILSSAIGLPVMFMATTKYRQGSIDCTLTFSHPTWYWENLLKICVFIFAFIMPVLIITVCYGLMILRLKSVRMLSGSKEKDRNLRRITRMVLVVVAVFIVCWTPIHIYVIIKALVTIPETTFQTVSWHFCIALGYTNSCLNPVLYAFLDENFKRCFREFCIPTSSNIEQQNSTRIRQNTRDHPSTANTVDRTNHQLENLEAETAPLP
Description: as §1, §2, §3

[5] = test system: formalin-induced flinching; experiment: In vivo formalin-induced nociception assay; parameters: species or system male Sprague-Dawley rats; conditions: dose of 100 μg, i.paw
Text: Administration of formalin into the paw results in a localized inflammation and a pain response that is moderate in intensity and continuous in duration. Unlike many other assays of nociception, the formalin assay measures tonic pain that is a result of tissue injury, and therefore is a model which is more relevant to clinical pain states in humans (see Tjolsen et al., Pain 51: 5-17, 1992). In the rat the response to formalin-induced pain consists of spontaneous flinching behavior, characterized by paw lifting and paw shaking, and a rapid vibration of the paw after drawing it under the body. […] The early or acute phase lasts from 0-5 minutes post-formalin and is followed by a quiescent period lasting approximately 15 minutes. The tonic phase occurs from 20-35 minutes following formalin injection and is the interval where the number of flinching responses is maximal. […]
Inflammation is induced by subcutaneous injection of […] of a 5% formalin solution into the dorsal surface of the right hind paw of male Sprague-Dawley rats weighing 70-90 g. Injections of drug are given into the dorsal surface of the paw prior to formalin injection, and flinching behavior is quantitated by counting the number of responses that occur during the tonic phase of pain, lasting from 20-35 min after formalin injection. […]

cloned human a receptors = biological target: T4, cloned human a receptors (Homo sapiens, UniProt P41145); experiment: Stimulation of [35S]GTPγS binding to membranes (agonist potency); format: biochemical
T4 construct: expressed in transfected cells
T4 sequence (P41145 whole entry): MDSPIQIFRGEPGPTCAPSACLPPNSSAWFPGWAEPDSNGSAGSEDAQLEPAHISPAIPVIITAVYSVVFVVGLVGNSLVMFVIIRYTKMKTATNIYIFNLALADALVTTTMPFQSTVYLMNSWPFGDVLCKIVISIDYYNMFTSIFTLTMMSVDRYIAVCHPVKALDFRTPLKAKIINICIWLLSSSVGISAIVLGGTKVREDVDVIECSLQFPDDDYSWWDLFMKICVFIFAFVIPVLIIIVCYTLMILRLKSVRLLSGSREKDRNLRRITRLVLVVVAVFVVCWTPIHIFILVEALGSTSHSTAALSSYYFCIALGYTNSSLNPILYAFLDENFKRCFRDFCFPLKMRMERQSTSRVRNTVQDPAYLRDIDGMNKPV
Description: The potencies of the agonists were assessed by their abilities to stimulate [^35S]GTPγS binding to membranes containing the cloned human a receptors.
To determine the EC50 value, which was the concentration to give half-maximal stimulation of [^35S]GTPγS binding, the amount of [^35S]GTPγS bound in the presence of various concentrations of agonists was measured. The EC50 value was then determined.

T1 sequence (P41145 whole entry): as above

Compound: O=C1C(c2ccc(Cl)c(Cl)c2)CC=CCN1[C@H](CN1CCCC1)c1ccccc1 (stereo partly drawn) [Example 9, 3-(3,4-Dichloro-phenyl)-1-(1-(S)-phenyl-2-pyrrolidin-1-yl-ethyl)-1,3,4,7-tetrahydro-azepin-2-one]
- Ki [1]: 1 nM
- selectivity versus the human δ receptor [2]: > 100 ×
- ED50 [3]: < 30 mg/kg
- selectivity versus the human μ receptor [4]: > 100 ×
- % A (percent antagonism of formalin-induced flinching) [5]: > 80%
- EC50 (cloned human a receptors): 2.5 nM
